Several values for one entry are separate records, joined by “and”; a condition that tells them apart may be missing. Equal values may be shown once.
What was measured:
rats [1] = assay: Inhibitory Avoidance task, normal rats
Protocol: The paradigms consists of one training trial and one retention trial. Test substances may be administered to the rats either before or after training. Improved memory, as a result of test substance administration, is evident on the retention trial.
(§1) Two seconds after entering the dark chamber, a continuous 0.46 mA foot-shock was delivered through the floor grid for two seconds. The animal was then removed from the apparatus and returned to the home cage. The animals received a retention test 24 hours following training. The retention test was identical to training except that no foot-shock was delivered. […] Data was collected by the Graphic State™ Notation software, and was recorded onto an appropriate data sheet.

[2] = system: rats with bilateral lesions of the fornix; assay: Inhibitory Avoidance task, fornix lesion rats; settings: for latency to enter the dark side of the apparatus: Fornix lesion rats, each animal
Protocol: as §1

Long-Evans rats [3] = assay: Passive Avoidance test, injection immediately after training; settings: i.p. immediately after training; p values=0.007 (C105), 0.0004 (d-amphetamine), 0.03 (SN522)
rats [4] = assay: Activity monitoring, open-field box, 10 minutes; settings: 2 mg/kg; entire 10 minute session (FIG. 7)
Protocol: Activity monitoring was conducted in a Plexiblas open-field box. Activity levels were measured by a grid of infrared light beams that traversed the cage from left to right and back to front. The location of the animal was detected by breaks in the infrared light beams. General behavior and activity levels were recorded by a computerized monitoring system for a period of ten minutes. The analyzed behaviors included but were not limited to; horizontal activity, total distance moved, movement time, number of movements, number of rears, number of stereotyped movements, and time spent resting. Data was collected on-line using Versa Max (Version 1.83) computer software and a Hewlett Packard Pavilion computer.

Long-Evans rats [5] = assay: Locomotor activity, activity monitoring chambers; format: in vivo, rat; settings: higher doses (0.5, 2.5, 5.0 mg/kg ip) (FIG. 24)
Protocol: Activity monitoring was conducted in a Plexiglas open-field box measuring 30 by 30 cm. […] The location of the animal within the cage was detected by breaks in the infrared light beams. Light beams status information was collected and rapidly analyzed by a computerized activity monitoring system (VersaMax System, Accuscan Instruments.)
In order to determine whether SN522 had any adverse effects on locomotor or exploratory activity, rats were injected with saline or 0.25, 0.5, 2.5 and 5.0 mg/kg of SN522 and immediately afterwards placed into the activity monitoring chambers for a period of three hours.

scopolamine treated rats = assay: Passive Avoidance in scopolamine treated rats (memory impairment); format: in vivo, rat
rats [6] = assay: Tail-Flick Analgesia Testing (C105); format: in vivo, rat; design: Tail-Flick Analgesia (latency to flick tail): unit not given here; settings: for Tail-Flick Analgesia (latency to flick tail): each animal
Protocol: For Tail-Flick Analgesia Testing, the animal was placed on top of the Tail-Flick monitor and gently held in place with a cotton towel. The tail of the animal was placed in a shallow groove lying between two sensors and over the top of a radiant heat wire. The Tail Flick monitor was activated, and the latency for the animal to flick its tail out of the groove and away from the heat source was recorded. The animal was returned to its home cage immediately following testing.

rats [7] = assay: Spontaneous Object Recognition task, normal rats; settings: 0.5 mg/kg immediately following training
From the text: Apparatus for Object Recognition testing consisted of a plexiglass open field activity chamber, measuring 30 by 30 cm. A video camera was mounted on the wall above the chamber. Three plastic objects served as stimuli for the experiment. Two of the objects were identical to one another, and the third was different. Rats were individually habituated to the open-field box for three consecutive days. Habituation sessions were six minutes in duration. Twenty-four hours after the last day of habituation, a training session was conducted, in which two identical objects were placed in the open-field box, 10 cm from the back wall. The animal was placed into the box and was allowed to explore freely for a period of four minutes. Twenty-four hours after the training session, retention testing was conducted. During retention testing, the rat was placed back into the same activity box with one of the familiar objects used during the training session and a novel object that the rat had not seen before. The rat was allowed to explore the box and objects for a period of four minutes. Testing was conducted at the same time each day, and was videotaped for off-line analysis. Two discrimination indices, D1 and D2 were calculated in order to measure the strength of recognition memory. […]

[8] = system: healthy adult male and female subjects; assay: Phase 1 studies of C105: safety and tolerability; format: in vivo, human
From the text: Safety and tolerability assessments were changes in vital signs, ECGs, Holter monitoring, laboratory tests, physical examination and adverse events.

In the case of `C[C@H](N)Cc1ccccc1` [(S)-(+)-amphetamine, reference compound], the “latency to enter the dark side of the apparatus” value (from here on “latency to enter the dark side”) (rats [1]; 0.5 mg/kg, each animal, rank-ordered, 24 h retention) is reported as 65.0 seconds and 110.0 seconds and 153.0 seconds and 207.0 seconds (2×) and 2.0 seconds and 26.0 seconds and 38.0 seconds and 39.0 seconds and 63.0 seconds, the “latency to enter the dark side” value (rats [1]; 1.0 mg/kg, each animal, rank-ordered, 24 h retention) is reported as 34.0 s and 35.0 s and 47.0 s and 157.0 s and 263.0 s and 7.0 s and 17.0 s and 19.0 s and 25.0 s and 31.0 s and the “Inhibitory Avoidance performance, dose experiment” value (rats [1]; 2.0 mg/kg one hour before training (Tables 1 and 2)) is reported as “appeared to enhance performance”. For the same molecule, the “IA performance of normal rats” value (rats [1]; 2.0 mg/kg, one hour before (FIG. 5), p<0.05 vs all other groups) was “dramatically enhanced the performance of normal rats”, the “memory for the Inhibitory Avoidance task” value (rats [1]; 2.0 mg/kg, replicated experiments (FIG. 6), t(76)=3.416, p<0.001) was “significantly enhanced memory for the Inhibitory Avoidance task” and the “latency to enter the dark side” value (rats [1]; 2.0 mg/kg, each animal, rank-ordered, 24 h retention) was 190.0 s and 230.0 s and 245.0 s and 457.0 s and 517.0 s and 33.0 s and 63.0 s and 82.0 s and 84.0 s and 101.0 s. For the same molecule, the “second retention test one week after the first retention test” value (rats [1]; no additional training or drug (FIG. 4), p<0.01) was “performed significantly better than rats that had received control injections of vehicle solution”, the “IA performance of fornix animals compared with normal, saline injected animals” value ([2]; 2.0 mg/kg (FIG. 5)) was “not significantly different from normal, saline injected animals” and the “IA performance of fornix lesion rats” value ([2]; 2.0 mg/kg, one hour before (FIG. 5)) was “appeared to improve the performance of the fornix lesion rats”. The “dose that significantly improved performance on the passive avoidance task” value (Long-Evans rats [3]) was 2.0 mg/kg, the locomotor activity (rats [4]) was “clear and significant enhancement in locomotor activity” and the effects on activity (Long-Evans rats [5]) was “profound increases in activity”.

In the case of “(−)-1-methyl-2-phenylethylamine sulfate (2:1) [C105]”, the “performance vs animals treated with scopolamine and saline” value (scopolamine treated rats; 1.0 mg/kg of C105, printed p>0.05) is reported as “performed significantly better than animals treated with scopolamine and saline”, the “alleviation of scopolamine impairment (step-through latency)” value (scopolamine treated rats; C105 i.p. immediately after training, log rank p=0.02 (FIG. 33)) is reported as “effective at alleviating the impairment in the scopolamine-injected animals” and the “Tail-Flick Analgesia (latency to flick tail)” value (“Tail-Flick Analgesia” for short) (rats [6]; 1.0 mg/kg one hour prior to testing) is reported as 4.60 and 5.09 and 6.01 and 1.13 and 2.28 and 3.26 and 3.30 and 4.59. The “Tail-Flick Analgesia” value (rats [6]; 2.0 mg/kg one hour prior to testing) was 3.89 and 3.96 and 4.45 and 2.46 and 2.68 and 2.79 and 3.05 and 3.56, the “Tail-Flick Analgesia” value (rats [6]; 4.0 mg/kg one hour prior to testing) was 6.66 and 16.44 and 20.00 and 2.22 and 3.13 and 5.43 and 6.26 and 6.42 and the “Tail-Flick Analgesia” value (rats [6]; 8.0 mg/kg one hour prior to testing) was 6.54 and 7.39 and 14.43 and 3.13 and 4.67 and 4.72 and 5.22. For the same molecule, the analgesic properties (rats [6]; 1.0 and 2.0 mg/kg one hour prior to testing) was “had no analgesic properties”, the analgesic properties (rats [6]; 4.0 and 8.0 mg/kg one hour prior to testing, statistical significance at 4.0 mg/kg (p<0.0117)) was “did” and the “latency to enter the dark side” value (rats [1]; 0.4 mg/kg one hour prior to training, each animal, rank-ordered) was 231.0 s and 236.0 s and 250.0 s and 265.0 s and 629.0 s and 45.0 s and 62.0 s and 80.0 s and 87.0 s and 170.0 s. For the same molecule, the “Inhibitory Avoidance performance, post training administration” value (rats [1]; 0.5 mg/kg immediately after training (FIG. 11), p<0.0402) was “significantly enhanced performance on the Inhibitory Avoidance task”, the “latency to enter the dark side” value (rats [1]; 1.0 mg/kg one hour prior to training, each animal, rank-ordered) was 343.0 s and 729.0 s and 813.0 s and 824.0 s and 900.0 s and 101.0 s and 115.0 s and 121.0 s and 202.0 s and 265.0 s and the “Inhibitory Avoidance performance vs saline controls” value (rats [1]; 1.0 mg/kg one hour prior to training, post hoc p<0.05) was “performed significantly better than saline injected controls”. The “latency to enter the dark side” value (rats [1]; 2.0 mg/kg one hour prior to training, each animal, rank-ordered) was 230.0 seconds and 231.0 seconds and 253.0 seconds and 366.0 seconds and 384.0 seconds and 30.0 seconds and 59.0 seconds (2×) and 127.0 seconds and 137.0 seconds, the “latency to enter the dark side” value (rats [1]; Control rats, 0.5 mg/kg, each animal (Table 7)) was 214.0 s and 240.0 s and 252.0 s and 271.0 s and 284.0 s and the “latency to enter the dark side” value (rats [1]; Control rats, 1.0 mg/kg, each animal (Table 7)) was 106.0 s and 195.0 s and 197.0 s and 213.0 s and 238.0 s. For the same molecule, the “latency to enter the dark side” value (rats [1]; Control rats, 2.0 mg/kg, each animal (Table 7)) was 86.0 s and 92.0 s and 106.0 s and 160.0 s and 192.0 s, the “latency to enter the dark side” value (rats [1]; Control rats, 4.0 mg/kg, each animal (Table 7)) was 83.0 seconds (2×) and 86.0 seconds and 98.0 seconds and 193.0 seconds and the “mnemonic performance, Inhibitory Avoidance” value (rats [1]; doses lower than 0.5 mg/kg (0.1, […]) one hour prior to training) was “not effective in improving the mnemonic performance”. The “latency to enter the dark side” value (rats [1]; low doses: 0.1 mg/kg one hour prior to training, each animal, 0.1 mg/kg) was 55.0 seconds (2×) and 110.0 seconds and 113.0 seconds and 124.0 seconds and 366.0 seconds and 37.0 seconds (2×) and 39.0 seconds (2×), the “dose most effective in improving the performance of the fornix lesion animals” value ([2]; 0.5, 1.0, 2.0 and 4.0 mg/kg tested, one hour prior to testing (FIG. 12)) was 1.0 mg/kg and the “latency to enter the dark side” value ([2]; 0.5 mg/kg) was 21.0 seconds (2×) and 32.0 seconds and 55.0 seconds and 65.0 seconds and 72.0 seconds and 209.0 seconds and 4.0 seconds and 7.0 seconds and 13.0 seconds. The “latency to enter the dark side” value ([2]; 1.0 mg/kg) was 19.0 seconds (2×) and 166.0 seconds and 221.0 seconds and 246.0 seconds and 274.0 seconds and 314.0 seconds and 4.0 seconds and 7.0 seconds, the “latency to enter the dark side” value ([2]; 2.0 mg/kg) was 28.0 s and 30.0 s and 40.0 s and 70.0 s and 84.0 s and 153.0 s and 4.0 s and 17.0 s and 18.0 s and 26.0 s and the “latency to enter the dark side” value ([2]; 4.0 mg/kg) was 25.0 s and 28.0 s and 42.0 s and 96.0 s and 140.0 s and 159.0 s and 2.0 s and 8.0 s and 13.0 s and 21.0 s. For the same molecule, the “discrimination indices D1 and D2 vs saline” value (rats [7]; p<0.0147 and p<0.0024) was “significantly higher”, the recognition memory (rats [7]; retention 24 h) was “significantly improved recognition memory” and the “dose that significantly improved performance on the passive avoidance task” value (Long-Evans rats [3]) was 0.5 mg/kg. For the same molecule, the serious adverse events ([8]; single oral doses 5 to 45 mg) was “no reported serious adverse events”, the “most frequently reported adverse events” value ([8]; single oral doses 5 to 45 mg, generally mild) was “dizziness, headache, insomnia, sinus tachycardia, supraventricular tachycardia and aptyalism” and the tolerability ([8]; single oral doses ranging from 5 to 45 mg) was “well tolerated”.

Source: patent publication US7619005B2, “Methods for treating cognitive impairment in humans with Multiple Sclerosis” (Cognition Pharmaceuticals LLC, priority 2000, dated 2009)
